Experimental data as given in a melting point compilation (Tetko et al.; mined from patent text by program, amines drawn as free bases though some values may be those of a salt).

SMILES	melting point
CS(=O)(=O)c1ccc(C=CCN2CCc3nc(N)sc3CC2)cc1	157 to 161 °C
CCOC(=O)c1csc(-c2ccc3cc(O)c(C45CC6CC(CC(C6)C4)C5)cc3c2)c1	199 to 200 °C
CCOC(=O)c1cnn2c(-c3cccc(C)c3)ccnc12	69 to 70 °C
CC(Cl)(Cl)C(NC(=O)c1cccc(Cl)c1)NC(=N[N+](=O)[O-])Nc1cccnc1 (centres undefined)	160 to 161 °C
COc1ccc(NS(=O)(=O)c2cc3cc(Cl)ccc3oc2=O)cc1	175 to 177 °C
CCOC(=O)c1ccc(OCCC2CCN(c3ccc(C)nn3)CC2)s1	114 °C
COc1ccc(-c2c(C=O)ccc3cc(OC)ccc23)cc1	99 to 101 °C
CSc1ccc(COC(=O)N2CCN(CC3(C)Cn4cc([N+](=O)[O-])nc4O3)CC2)cc1 (centres undefined)	118 to 120 °C
NS(=O)(=O)Nc1ccc(N2CCN(c3ccncc3)CC2)cc1	216 to 219 °C
Cc1noc(C)c1Cn1cc(N2C(=O)N(Cc3cc(O[Si](C)(C)C(C)(C)C)cc(O[Si](C)(C)C(C)(C)C)c3)C(C)(C)C2=O)cn1	213 to 215 °C
COc1ccc(F)c(O)c1	25 to 26 °C
CCOC(=O)c1ccccc1SC1C(=O)N(c2c(Cl)cc(Cl)cc2Cl)N=C1OC (centres undefined)	185 to 187 °C
N=C(Nc1nc(-c2ccccn2)nc2ccccc12)C(F)(F)F	189 °C
Cc1cccc2c1CCc1ccccc1C2(O)CCCN=Cc1ccccc1 (centres undefined)	130 to 131 °C
NC(=O)c1ncn2c1CN=C(c1ccccc1Cl)c1cc(Cl)ccc1-2	> 300 °C
CCCCCCCc1ccc(-c2ccc(OC)cc2)nc1	54.4 to 56.5 °C
CC(=O)NC1(c2ccccc2)C2=NCC(C)(C)CN2c2ccccc21 (centres undefined)	> 300 °C
CC(C)CC(=O)Nc1nc(-c2ccccc2)c(-c2ccc(=O)n(C(C)C)n2)s1	198 to 199 °C
CC(C)=CC(=O)N[C@H]1CC[C@H](CCN2CCC(c3cccc4c3CCO4)CC2)CC1	177 °C
C=CCCc1cc(C2(c3ccc(OC(F)F)cc3)N=C(N)N(C)C2=O)ccc1F (centres undefined)	55 to 58 °C
COc1ccc2c(c1)Sc1c(cc(OC)c(O)c1Br)N2C(=O)OC(C)OC(C)=O (centres undefined)	162 to 164 °C
N#Cc1ccc(N(Cc2ccc(Br)cc2)n2cnnc2)cc1	203 °C
CCCCc1ncc(/C=C(\Cc2cccs2)C(N)=O)n1Cc1cccc(Cl)c1Cl	185 to 187 °C
OCCCc1cn(-c2ccc(C(F)(F)F)cn2)nc1-c1ccccc1	99 to 100 °C
COC(=O)c1oc2cc3ccccc3cc2c1OC	121 to 124 °C

SMILES	melting point
O=c1ccn(-c2ccc(C(F)(F)F)cc2)nc1-c1ccnn1-c1ccccc1	237 to 238 °C
Cc1ccc(-c2ccc3c(c2)C=C(CO)CCO3)cc1	91 to 92 °C
Cn1c(Br)nc2c([N+](=O)[O-])cc(Br)cc21	235 to 236 °C
COc1ccc(-n2nc(OC(C)C)cc2-c2ccc(OCCNC(N)=O)cc2)cn1	120 °C
COc1ccc(C2=CC(=Nc3c(C)cc(C)cc3C)N(C)CN2C(C)=O)cc1OC	173 to 175 °C
O=C1CCC(N2C(=O)c3cccc(OCc4ccc(CN5CCC(c6ccccc6)CC5)cc4)c3C2=O)C(=O)N1 (centres undefined)	142 to 144 °C
CN(C)C=NS(=O)(=O)c1cc(CCNC(=O)C(F)(F)F)ccc1OCC1CCCO1 (centres undefined)	138 to 140 °C
COC(=O)c1ccc(C(=O)N[C@@H](CC(C)C)C(=O)N[C@@H](C(C)C)[C@@H](O)c2c(-c3ccccc3)c2=O)cc1	125 to 128 °C
CON=C(C(=O)NC1C(=O)N2C(C(=O)O)=C(CSc3nnnn3C)SCC12)c1csc(N)n1 (centres undefined)	180 °C
CNC(=O)c1cccc(NC(=O)COc2cccc(Cl)c2Cl)c1	192 to 193 °C
Cc1cccc(C2NS(=O)(=O)c3ccccc32)c1 (single isomer, unassigned; (+))	158 to 159 °C
Cc1oc(-c2ccc(-c3ccc(-c4nc(CCO)c(C)o4)cc3)cc2)nc1CCO	134 to 135 °C
Cc1cc(O)c(CC(=O)OC(C)C)cc1O	123 °C
CC(=O)c1ccc(-c2ccc(C#N)cc2)o1	115 to 116 °C
N#Cc1ccc(CN2CCN(c3ccncc3)CC2)cc1	137 to 138 °C
NC(=O)c1ncn2c(-c3cccc(Cl)c3)ccnc12	252 to 254 °C
CC(C)c1cccc(CCCn2ccnc2)c1NC(=O)CC1c2ccccc2Oc2ccccc21	194 to 195 °C
O=C(Nc1cc(-c2nc(-c3ccco3)no2)ccc1Cl)Oc1ccccc1	177 to 178 °C
Cc1ccc(-c2ccc3c(c2)C=C(C(=O)Nc2ccc(CCl)cc2)CC3)cc1	178 to 179 °C
CC(C)NCC(O)c1ccc(OCc2ccccc2)c(C(N)=O)c1 (centres undefined)	135 to 138 °C
CC1(C)OC(=O)Nc2c(F)cc(-c3cc(F)cc(C#N)c3)cc21	256 to 257 °C
Clc1ccc(-c2cnc3cc4cn[nH]c4cc3n2)s1	> 300 °C
COc1ccccc1N1CCN(CC(=O)Nc2ccc3c(c2NC(=O)c2ccc(C)cc2)C(=O)c2ccccc2C3=O)CC1	215 to 216 °C
O=[N+]([O-])c1cccnc1NCc1ccccn1	114 °C
CC(C)(C)NC(=O)c1cc(Br)c(Br)s1	190 °C

SMILES	melting point
Cc1cc2c(c3c1CCC3)OC(CNC(=O)OCc1ccccc1)C2 (centres undefined)	109 to 113 °C
CCCNc1nc(N)n[nH]1	148 to 149 °C
OCc1cnc(C(O)c2cc(F)ccc2F)c(F)c1 (centres undefined)	94 to 96 °C
Cc1ccc(C(=S)CC2CCCN(C)C2)cc1 (centres undefined)	61.5 to 62.5 °C
COCC(=O)Oc1cc(-n2c(=O)cc(C(F)(F)F)n(C)c2=O)c(F)cc1Cl	101 to 103 °C
CCOC(=O)c1cn(CC)c2nc(C=O)c(OCC)cc2c1=O	169 to 170 °C
COC(=O)c1[nH]cnc1CCNC(=O)[C@H](Cc1ccccc1)NC(=O)[C@H](Cc1ccccc1)NC(=O)OC(C)(C)C	155 to 159 °C
COc1ccc(CC(Br)C(N)=O)cc1C(=O)NCc1ccc(C(F)(F)F)cc1 (centres undefined)	192 to 193 °C
COC(=O)c1cccc(Cn2ccn(C3CCc4ccccc4C3)c2=S)c1 (centres undefined)	130 to 132 °C
C=CCN1CCc2cc(OC)c(O)c3c2C1Cc1cc(OC)c(OC)cc1-3 (single isomer, unassigned; (+))	85 to 93 °C
Cc1cccc(Nc2ncnc3ccc(OCCBr)cc23)c1	129 to 135 °C
C=CCN1CC(=O)N(c2cc(Cl)ccc2C)C1=S	106 to 109 °C
COC1CCc2c(C)c(O)c(C)c(C)c2O1 (centres undefined)	108 to 110 °C
COc1cc2ncnc(N3CCN(C(=O)Nc4ccncc4)CC3)c2cc1OC	141 to 143 °C
NC(=O)c1ccc(NC(=O)C(CS)Cc2ccccc2)cc1 (centres undefined)	195 to 197 °C
O=C(Nc1ncccn1)Nc1ccccc1C(F)(F)F	224 to 225 °C
COc1cccc(C=CC(=O)C(=O)O)c1OC	136 to 138 °C
CSc1ccc(-c2coc3ccc(-c4nnc(C)o4)cc23)cc1C	185 to 186 °C
COc1cc(C)c(C(=O)c2c(C(F)(F)F)ccnc2OC)cc1OC	125 to 127 °C
CCCCCCCCCCCCCCCCC=Cc1ccc(O)c(C(=O)O)c1	95 °C
COCCNc1nc(Cc2ccc(OC)c(OC)c2)nc2sc(C#N)c(C)c12	94 to 97 °C
CCc1ccc(-c2cc3ncnc(Nc4ccc5[nH]ccc5c4)c3s2)cc1	171 to 182 °C
CS(=O)(=O)c1ccc(C2=C(Br)C(=O)C3(CCCCC3)O2)cc1	163 to 164 °C
CC(C)(C)c1cc(CCc2ccccc2NC(=O)NCC2CCCCC2)cc(C(C)(C)C)c1O	208 to 210 °C
CS(=O)(=O)c1ccc(-c2oc(CO)cc(=O)c2Oc2ccc(F)cc2F)cc1	205 °C

SMILES	melting point
CC(=O)NCCc1ccc(CCl)cc1	86 to 88 °C
Cc1cn(S(C)(=O)=O)c2c1C(=O)CC(c1ccccc1Cl)C2 (centres undefined)	167 to 168 °C
O=C(c1ccc(F)cc1)c1nccc(O)c1O	249 to 251 °C
O=c1ccc(CO)c[nH]1	130 °C
Cn1c(OCc2ccccc2)noc1=O	80 to 83 °C
Cc1nc(-c2ccccc2F)n(O)c1-c1cccnc1	65 to 75 °C
CCN(CCOC)C(=O)c1cc(-c2ccccc2)c(=O)n2c1-c1ccccc1C2	139 to 140 °C
O=c1[nH]nc(OCC2c3ccccc3-c3ccccc32)o1	125 °C
CN=C1SC2Cc3ccc(S(C)(=O)=O)cc3C2(O)N1C (centres undefined)	158 °C
O=C1OC(Cl)(c2ccc(Cl)cc2)c2ccccc21 (centres undefined)	133 to 135 °C
CN1c2ccncc2NC(c2ccccc2)c2cccn21 (centres undefined)	200 to 203 °C
COP(=O)(CCc1cccc2c1O[C@H]1C[C@@H](O)[C@H](CO)[C@@H]21)OC	106 to 107 °C
Oc1ccccc1CNCCCCCCCCCCCCNCc1ccccc1O	72 to 73 °C
O=C1Nc2cccnc2N(CC#CCN2CCCCC2)c2ccccc21	198 °C
CC(C)(C)COc1cccc(C[C@@H](NC(=O)c2cccc3c(Cl)cccc23)[C@@H](O)c2cccc(Cl)c2)c1 (racemic)	142 to 143 °C
COC(=O)CCn1c(=O)n(CCCCCN2CCN(c3cccc(C(F)(F)F)c3)CC2)c(=O)c2cscc21	99.5 to 101 °C
CCOC(=O)C1=C(C)NC(c2cnc(NC(C)=O)s2)=NC1c1ccc(F)cc1Cl (centres undefined)	> 250 °C
C[C@@H]1Cc2ccsc2[C@H](C)N1CCNC(=O)c1c(F)c(F)c(F)c(F)c1F (relative stereo)	116 to 119 °C
O=C1CCC(N2Cc3cc(CNC(=O)Nc4cccc(Cl)c4)ccc3C2=O)C(=O)N1 (centres undefined)	215 to 217 °C
C=C(C)[C@H]1CC[C@@](C)(O)[C@H](N[C@@H](C)C2CCCCC2)C1	63 to 64 °C
Cn1cc(C(=O)c2ccc(F)cc2)cc1C(=O)c1ccccn1	159 to 161 °C
Nc1nc(OC2CCCC2)c2ncn(C3C=CC(CO)C3)c2n1 (centres undefined)	188 to 190 °C
CCCCCCCCCCCCCCCCNc1ccc(C(=O)NS(=O)(=O)c2ccc(C)cc2)cc1	123 to 124 °C
COc1c(C(=S)NCCNC2CCCCCC2)cc(C)c2ccccc12	140 to 141 °C
